The record followed here is publication PMC8934836 (EJNMMI Radiopharmacy and Chemistry, 2022).

SMILES strings stand for the structures. Read-outs that look alike come from different tables or passages of the source. Where only a bound is given, the exact number is not on record here.

Data set [1] in a line: Preliminary studies on storage stability of the precursor. Format: physicochemical. The settings on record: room temperature.
For another data set, the target named is T1, α1β3γ2 human GABAARs (Homo sapiens, UniProt P14867+P18507).
T1 construct: expressed in transfected cells; host or cells: mouse fibroblasts, stably expressing; membranes prepared
Kind of data set: [^3H]flumazenil in vitro binding assay, α1β3γ2. Here is the method: (§1) These samples were serially diluted in 100% DMSO in half-log units such that when 5 µl were added into a total assay volume of 500 µl, the final DMSO concentration in the assay was 1%.
(§2) In brief, mouse fibroblasts stably expressing the four subtypes of human GABAARs that contain a benzodiazepine binding site (i.e., α1-, α2-, α3- and α5β3γ2) were grown, harvested, and membranes were prepared and frozen at -80 °C until required. On the day of the assay, membranes were thawed and reconstituted in assay buffer (75 mM Tris.Cl, pH 7.4, 1 mM EDTA, 12.5 mM MgCl2) at a concentration of 101 µg/ml for α1β3γ2 and 51 µg/ml for α2-, α3- and α5β3γ2 membrane. […] Incubations were performed for 1 h at room temperature before being terminated by filtration and rapid washing (2 × 10 ml of ice-cold 50 mM Tris.Cl, pH 7.4 buffer) over Whatman GF/B filters using a Brandel cell harvester. Filters were then placed in scintillation vials, 4 ml of scintillation fluid added, and radioactivity was counted on a Tricarb 2900 scintillation counter.

The target in another data set is T2, α2β3γ2 human GABAARs (Homo sapiens, UniProt P18507+P47869).
T2 construct: expressed in transfected cells; host or cells: mouse fibroblasts, stably expressing; membranes prepared
Kind of data set: [^3H]flumazenil in vitro binding assay, α2β3γ2. Conditions: read-out: Affinity at human GABAAR subtypes, α2β3γ2 (mean Ki). Here is the method: as §1, §2

Another data set addresses T3, α3β3γ2 human GABAARs (Homo sapiens, UniProt P18507+P34903).
T3 construct: expressed in transfected cells; host or cells: mouse fibroblasts, stably expressing; membranes prepared
Kind of data set: [^3H]flumazenil in vitro binding assay, α3β3γ2. The settings on record: read-out: Affinity at human GABAAR subtypes, α3β3γ2 (mean Ki). Here is the method: as §1, §2

For another data set, the target named is T4, α5β3γ2 human GABAARs (Homo sapiens, UniProt P18507+P31644).
T4 construct: expressed in transfected cells; host or cells: mouse fibroblasts, stably expressing; membranes prepared
Kind of data set: [^3H]flumazenil in vitro binding assay, α5β3γ2. Here is the method: as §1, §2

[2] abbreviates: mouse fibroblast membranes, 4 nM [^3H]flumazenil, Cheng-Prusoff, mean ± SEM of n = 4 separate assays.

T1 sequence (P14867 28-456): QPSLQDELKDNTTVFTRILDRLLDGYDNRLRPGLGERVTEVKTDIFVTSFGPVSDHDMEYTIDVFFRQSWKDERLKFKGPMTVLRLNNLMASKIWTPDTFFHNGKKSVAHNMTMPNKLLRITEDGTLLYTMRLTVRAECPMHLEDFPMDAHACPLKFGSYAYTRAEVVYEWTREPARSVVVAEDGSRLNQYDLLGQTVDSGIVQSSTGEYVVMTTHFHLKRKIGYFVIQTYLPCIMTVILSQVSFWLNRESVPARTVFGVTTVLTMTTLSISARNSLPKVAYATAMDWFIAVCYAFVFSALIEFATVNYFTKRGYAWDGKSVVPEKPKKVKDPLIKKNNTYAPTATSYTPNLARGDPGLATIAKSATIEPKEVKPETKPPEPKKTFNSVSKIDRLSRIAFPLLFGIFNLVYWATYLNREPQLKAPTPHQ
T1 sequence (P28472 26-473 partner): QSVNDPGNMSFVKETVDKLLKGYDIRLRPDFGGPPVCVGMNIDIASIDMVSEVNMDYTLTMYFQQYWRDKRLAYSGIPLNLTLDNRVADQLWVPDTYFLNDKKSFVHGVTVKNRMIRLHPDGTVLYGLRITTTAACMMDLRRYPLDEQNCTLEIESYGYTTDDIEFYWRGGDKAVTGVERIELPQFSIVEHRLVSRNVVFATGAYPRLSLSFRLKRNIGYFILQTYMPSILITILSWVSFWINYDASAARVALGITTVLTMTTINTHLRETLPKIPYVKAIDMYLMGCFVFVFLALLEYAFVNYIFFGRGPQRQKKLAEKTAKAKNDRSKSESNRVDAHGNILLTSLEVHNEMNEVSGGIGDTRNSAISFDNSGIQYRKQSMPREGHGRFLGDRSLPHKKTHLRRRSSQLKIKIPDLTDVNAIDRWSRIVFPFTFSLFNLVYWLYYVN
T1 sequence (P18507 40-475): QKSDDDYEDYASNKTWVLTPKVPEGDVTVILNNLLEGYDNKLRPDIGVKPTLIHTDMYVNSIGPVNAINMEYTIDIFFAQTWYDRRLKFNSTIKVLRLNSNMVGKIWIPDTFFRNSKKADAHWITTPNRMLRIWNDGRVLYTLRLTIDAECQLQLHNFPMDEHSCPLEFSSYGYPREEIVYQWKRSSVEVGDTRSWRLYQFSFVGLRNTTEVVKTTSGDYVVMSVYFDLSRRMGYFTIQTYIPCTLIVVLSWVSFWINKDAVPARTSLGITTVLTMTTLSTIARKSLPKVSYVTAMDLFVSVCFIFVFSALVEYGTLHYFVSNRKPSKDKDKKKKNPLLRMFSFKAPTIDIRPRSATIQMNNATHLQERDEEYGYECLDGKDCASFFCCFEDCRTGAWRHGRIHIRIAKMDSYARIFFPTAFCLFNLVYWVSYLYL
T2 sequence (P47869 29-451): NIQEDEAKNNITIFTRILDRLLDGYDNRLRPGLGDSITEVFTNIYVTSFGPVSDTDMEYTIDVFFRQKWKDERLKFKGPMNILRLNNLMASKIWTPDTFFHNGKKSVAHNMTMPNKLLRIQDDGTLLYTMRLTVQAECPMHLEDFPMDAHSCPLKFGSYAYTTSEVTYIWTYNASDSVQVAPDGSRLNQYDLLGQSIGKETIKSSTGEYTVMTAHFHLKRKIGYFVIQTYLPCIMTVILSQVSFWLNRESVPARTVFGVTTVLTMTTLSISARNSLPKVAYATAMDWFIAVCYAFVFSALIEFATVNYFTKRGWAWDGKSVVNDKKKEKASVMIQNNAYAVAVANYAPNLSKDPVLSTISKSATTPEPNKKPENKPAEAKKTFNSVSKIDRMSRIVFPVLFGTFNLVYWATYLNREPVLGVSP
T2 sequence (P28472 26-473 partner): as the sequence (P28472 26-473 partner) above
T2 sequence (P18507 40-475): as the sequence (P18507 40-475) above
T4 sequence (P31644 32-462): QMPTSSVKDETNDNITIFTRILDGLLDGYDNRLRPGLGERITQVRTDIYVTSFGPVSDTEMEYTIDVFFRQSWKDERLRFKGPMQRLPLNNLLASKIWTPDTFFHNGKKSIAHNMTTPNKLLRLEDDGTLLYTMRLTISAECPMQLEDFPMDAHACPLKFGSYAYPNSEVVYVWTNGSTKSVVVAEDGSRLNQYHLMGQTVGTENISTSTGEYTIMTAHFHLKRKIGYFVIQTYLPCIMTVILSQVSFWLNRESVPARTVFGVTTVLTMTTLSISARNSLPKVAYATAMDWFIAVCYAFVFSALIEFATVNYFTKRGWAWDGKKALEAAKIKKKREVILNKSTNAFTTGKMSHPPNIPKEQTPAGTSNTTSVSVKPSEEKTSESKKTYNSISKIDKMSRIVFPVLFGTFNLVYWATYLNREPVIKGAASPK
T4 sequence (P28472 26-473 partner): as the sequence (P28472 26-473 partner) above
T4 sequence (P18507 40-475): as the sequence (P18507 40-475) above
T3 sequence (P34903 29-492): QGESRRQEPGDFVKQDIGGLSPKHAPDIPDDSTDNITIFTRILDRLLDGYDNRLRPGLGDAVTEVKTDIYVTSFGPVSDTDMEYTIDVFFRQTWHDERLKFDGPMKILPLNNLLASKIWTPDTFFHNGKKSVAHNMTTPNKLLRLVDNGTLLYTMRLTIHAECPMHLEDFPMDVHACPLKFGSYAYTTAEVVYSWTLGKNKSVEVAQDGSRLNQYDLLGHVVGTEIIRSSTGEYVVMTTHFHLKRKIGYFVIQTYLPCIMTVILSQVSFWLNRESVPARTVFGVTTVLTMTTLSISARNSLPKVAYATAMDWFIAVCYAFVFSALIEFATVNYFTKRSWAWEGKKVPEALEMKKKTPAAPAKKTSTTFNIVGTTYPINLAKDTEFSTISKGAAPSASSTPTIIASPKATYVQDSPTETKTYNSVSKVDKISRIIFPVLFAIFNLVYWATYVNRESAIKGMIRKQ
T3 sequence (P28472 26-473 partner): as the sequence (P28472 26-473 partner) above
T3 sequence (P18507 40-475): as the sequence (P18507 40-475) above

Take `CCOC(=O)c1ncn2c1CN(C)C(=O)c1cc(B3OC(C)(C)C(C)(C)O3)ccc1-2` [FMZ-BPin, Ethyl 5-methyl-6-oxo-8(4,4,5,5-tetramethyl-1,3,2-dioxaborolan-2-yl)-5,6-dihydro-4H-benzo[f]imidazo[1,5-a][1,4]diazepine-3-carboxylate]: in data set [1], the “Stable for prolonged storage” value is recorded as more than 9 months.
Regarding `CCOC(=O)c1ncn2c1CN(C)C(=O)c1ccccc1-2` [HMZ, ethyl 5-methyl-6-oxo-5,6-dihydro-4H-benzo[f]imidazo[1,5-a][1,4]diazepine-3-carboxylate], the Ki (in general, the dissociation constant of the complex between target and ligand, obtained from inhibition or displacement) on α1β3γ2 human GABAARs came to 24 ± 3 nM; at α2β3γ2 human GABAARs it was 15 ± 2 nM; on α3β3γ2 human GABAARs, 11 ± 4 nM; at α5β3γ2 human GABAARs, 1.7 ± 0.2 nM.
Consider `CCOC(=O)c1ncn2c1CN(C)C(=O)c1cc(O)ccc1-2` [OHMZ, Flumazenil impurity B], for which the Ki on α1β3γ2 human GABAARs (mouse fibroblast membranes, 4 nM [^3H]flumazenil, Cheng-Prusoff, mean ± SEM of n = 4 separate assays, read-out: Affinity at human GABAAR subtypes, α1β3γ2 (mean Ki)) was 5.4 ± 0.6 nM; at α2β3γ2 human GABAARs (setting [2]), 7.3 ± 1.5 nM; on α3β3γ2 human GABAARs (setting [2]), 2.7 ± 0.9 nM; on α5β3γ2 human GABAARs (mouse fibroblast membranes, 4 nM [^3H]flumazenil, Cheng-Prusoff, mean ± SEM of n = 4 separate assays, read-out: Affinity at human GABAAR subtypes, α5β3γ2 (mean Ki)), 0.5 ± 0.1 nM.
